Earlier results, collected in patent US20160114057A1, “MODULAR PROTEIN DRUG CONJUGATE THERAPEUTIC” (ZYMEWORKS INC., priority 2013, published 2016).
“And” between values parts separate entries of the source, which are not always exact repeats. Equal values may be shown once. Read-outs that look alike come from different tables or passages of the source. *1 amine or outer side, *2 acyl side, *3 side chain or, on linkers, in order; H or OH if unused. Where a SMILES comes first, the peptide text is derived from it. Bridges are numbered along the chain shown (N, C = ends). [ ]: non-standard residue; d: D form. The star is where a group is joined. X2 = CC[C@@H](C)C[C@H](N[*:1])C(=O)[*:2]; X1 = CC[C@H](C)CC(N[*:1])C(=O)[*:2]; d(aThr) = C[C@@H](O)[C@@H](N)C(=O)O; NMe2Val = CC(C)[C@@H](C(=O)*)N(C)C; NMeT = CN[C@H](C(=O)O)[C@@H](C)O; Suc = O=C(CCC(=O)[*:2])[*:1]; NMeV = CN[C@H](C(=O)O)C(C)C; NHBn = c1ccc(CN*)cc1; Dha = C=C(N)C(=O)O

Columns and labels:
[1] = system: various tumor cell lines
[2] = system: MDR cell lines
[3] = system: NCI tumor panel (60 cell line); settings: for IC50: range over cell lines
[4] = system: P388
[5] = in vivo
[6] = system: KB

Compound: C=C(C)[C@@H]1NC(=O)[C@@H](NC)[C@@H](O)c2cc(Cl)c(O)c(c2)O[C@](C)(CC)[C@@H](C(=O)N2CC=C[C@H]2C(=O)N/C(C(=O)N/C(=C/C(=O)O)C(=O)O)=C(\C)CC)NC1=O [Phomopsin A]
- activity in cell culture (in words) [1]: potent anticancer

Compound: C=CC[C@@H](CC/C(C)=C/C=C/CC/C=C\[C@@H]1CSC([C@@H]2C[C@@H]2C)=N1)OC [Curacin A and analogs]
- IC50 ([1]; broad activity (cancer cell lines), read-out: Activity (IC50)): 1 to 29 nM

Compound: CCCC1C(=O)O[C@H](/C(C)=C/c2csc(C)n2)C[C@@H]2O[C@]2(C)CCC[C@H](C)[C@H](O)[C@@H](C)C(=O)C(C)(C)[C@H]1O (some centres unmarked) [ZK-EPO]
- activity against multi-drug/drug resistant cell lines (in words) [2]: active in drug

Compound: COc1ccc(C[C@H]2NC(=O)/C=C/C[C@@H]([C@H](C)[C@@H](O)[C@@H](Cl)c3ccccc3)OC(=O)[C@H](CC(C)C)OC(=O)[C@H](C)CNC2=O)cc1Cl [Cryptophycin 8]
- activity in cell culture (in words) [1]: broad spectrum

Compound: Halichondrin B
- Toxicity (in words) (in vivo): myelotoxicity dose

Compound: C=C(Cl)/C=C/[C@@H](O)CC(=C)C[C@H]1O[C@@H]2[C@H](C)[C@@H](OC(=O)C[C@@H]3C[C@H](OC(C)=O)C[C@@]4(C[C@@](C)(O)C[C@H](CC(=C)[C@@H](C)C(OC(C)=O)[C@H](C)C(=O)C[C@@H]5C[C@H](OC)C[C@@]6(C[C@@H](O)C[C@H](/C=C\CCC[C@H]7O[C@](O)(C[C@H](O)[C@H]7C)[C@H]2O)O6)O5)O4)O3)[C@@H]1O (some centres unmarked) [Spongistatin-1]
- GI50 ([3]; NCI tumor panel, values or ends of the range over cell lines, read-out: GI50): ≥ 0.025 nM and ≤ 0.035 nM

Compound: COc1cc2cc(c1Cl)N(C)C(=O)C[C@H](OC(=O)[C@H](C)N(C)C(C)=O)[C@]1(C)O[C@H]1[C@H](C)[C@@H]1C[C@@](O)(NC(=O)O1)[C@H](OC)/C=C/C=C(\C)C2 [Maytansine]
- Toxicity (in words): severe toxicity

Compound: C=C(Cl)/C=C/[C@@H](O)CC(=C)C[C@H]1O[C@@H]2[C@H](C)[C@@H](OC(=O)C[C@@H]3C[C@H](OC(C)=O)C[C@@]4(C[C@@](C)(O)C[C@H](CC(=C)[C@@H](C)C(OC(C)=O)[C@H](C)C(=O)C[C@@H]5C[C@H](OC)C[C@@]6(C[C@@H](O)C[C@H](/C=C\CCC[C@H]7O[C@](O)(C[C@H](O)[C@H]7C)[C@H]2O)O6)O5)O4)O3)[C@@H]1O (some centres unmarked) [Spongistatins (1-9)]
- activity in NCI tumor panel (in words) [3]: Most potent
- GI50 ([3]; NCI panel cell line, read-out: mean GI50): 0.1 nM

Compound: CC(=O)O[C@H]1C(=O)[C@@]2(C)[C@H]([C@H](OC(=O)c3ccccc3)[C@]3(O)C[C@H](OC(=O)[C@H](O)[C@@H](NC(=O)c4ccccc4)c4ccccc4)C(C)=C1C3(C)C)[C@]1(OC(C)=O)CO[C@@H]1C[C@@H]2O [Taxol]
- Toxicity (in words) (in vivo): severe toxicity

Compound: C=C1C[C@@H]2CCO[C@H]3[C@@H]4O[C@H]5CC[C@H](CC(=O)O[C@@H]6[C@@H](C)[C@@H]7O[C@@H]8C[C@]9(C[C@@H]%10O[C@]%11(C[C@H](C)[C@@H]%12O[C@H](CC(=O)CCO)[C@H](O)C[C@@H]%12O%11)C[C@H](C)[C@@H]%10O9)O[C@@H]8C[C@@H]7O[C@H]6C[C@H]6O[C@@H](CC[C@@H]1O2)C[C@@H](C)C6=C)O[C@@H]5[C@@H]1OCC[C@H]3O[C@@H]14 [Isohomo-halichondrin B]
- IC50 ([3]; NCI tumor panel): ~0.1 nM

Compound: CCCC1(O)C(O)C(C)C/C=C/C=C/C(CC(C)O)CCC2OC3(CCC(C)C(C(C)C(O)CC)O3)C(C)C(OC(=O)/C=C/C(C)C(O)C(C)C(O)C(OC3CCC(O)C(C)O3)C(O)C(O)C1O)C2C (centres unmarked) [IB-96212]
- IC50 [4]: 0.1 P388 ng/mL

Compound: CCCCCCCCCCCCCCCC(=O)OC1CC(C(C)C(OC)/C(C)=C/C=C/C(C)=C/c2coc(C)n2)OC(=O)C2OC2CC2CC(=O)OC(C2)C(C)/C=C/C2OC21C (centres unmarked) [Palmitoylrhizoxin]
- Toxicity (in words): binds LDL; less

Compound: CC/C=C\C=C/C(=O)N/C=C/CC1CC2CC(O)CC(Cc3cccc(O)c3C(=O)O1)O2 (centres unmarked) [Apicularen A]
- IC50 [1]: IC50's of 0.1 to 3 ng/mL

Compound: CC[C@H](C)[C@@H]([C@@H](CC(=O)N1CCC[C@H]1[C@H](OC)[C@@H](C)C(=O)N[C@@H](Cc1ccccc1)c1nccs1)OC)N(C)C(=O)[C@@H](NC(=O)[C@H](C(C)C)N(C)C)C(C)C [Dolastatin-10]
- concentration with myelotoxicity (in vivo): greater than 0.3 pM)

Compound: C=C1C[C@@H]2C[C@@H]3C[C@@H](O)C[C@@H](O3)c3coc(n3)/C=C/C[C@H]3O[C@@H](/C(C)=C/c4coc(C[C@]5(O)CC(OC)C[C@H]([C@H](O)/C=C(C)/C=C/C(C/C=C/Br)OC)O5)n4)[C@H](C)[C@@H](OC(=O)/C=C\C[C@@H](C1)O2)[C@H]3C (some centres unmarked) [Phorboxazole A]
- IC50 ([3]; NCI tumor panel): 1 to 10 nM

Compound: C/C(=C\c1csc(CN)n1)[C@@H]1C[C@@H]2O[C@]2(C)CCC[C@H](C)[C@H](O)[C@@H](C)C(=O)C(C)(C)[C@@H](O)CC(=O)O1 [BMS-310705]
- Toxicity (in words) (in vivo): adverse events
- IC50 ([1]; broad activity, read-out: IC50): 0.7 to 10 nM
- t1/2 [5]: 3.5 hrs; improved

Compound: CO[C@]12C=C[C@](C)(O1)[C@@H](OC(=O)/C=C/c1cn(C)cn1)C[C@H]1C(C)=CC[C@H](C(C)C)[C@H]1/C=C\2CO[C@@H]1OC[C@@H](O)[C@@H](O)[C@@H]1OC(C)=O [Eleutherobins]
- activity against multi-drug/drug resistant cell lines (in words) [2]: taxol; not effective

Compound: COc1cc([C@@H]2c3cc4c(cc3[C@H](O)[C@H]3COC(=O)[C@H]23)OCO4)cc(OC)c1OC [Podophyllotoxin]
- activity in cell culture (in words) [1]: in μM range

Compound: COc1ccc(C[C@H]2NC(=O)/C=C/C[C@@H]([C@H](C)[C@H]3O[C@@H]3c3ccccc3)OC(=O)[C@H](CC(C)C)OC(=O)CCNC2=O)cc1 [Arenastatin A analogs]
- Activity (IC50) ([6]; KB (nasopharyngeal)): 0.005 ng/mL
- IC50 ([6]; KB, read-out: Activity (IC50)): 8.7 nM

Compound: CC(C)[C@H](NC(=O)[C@H](C(C)C)N(C)C)C(=O)N(C)[C@H](C(=O)N1CCC[C@H]1C(=O)N1CCC[C@H]1C(=O)NCc1ccccc1)C(C)C [Cemadotin] (NMe2Val-V[NMeV]PP-NHBn)
- Toxicity (in words): hypertension,
- activity in NCI tumor panel (in words) [3]: active in breast,

Compound: C=C1NC(=O)[C@H]([C@@H](C)CC)NC(=O)[C@@H]2CSSC[C@H](NC(=O)CCC(=O)O)C(=O)N[C@H](Cc3ccccc3)C(=O)N[C@H](C)C(=O)NC(C[C@@H](C)CC)C(=O)N[C@@H](C(=O)N[C@H](Cc3ccccc3)C(=O)N3CCC[C@H]3C(=O)N2)[C@@H](C)OC(=O)[C@H](CO)NC(=O)[C@H]([C@@H](C)OC)N(C)C(=O)[C@@H](C(C)C)NC(=O)[C@H](C[C@H](C)CC)NC1=O (some centres unmarked) [Vitilevuamide] (Suc-C[dF][dA][X1][d(aThr)][dF]PCI[Dha][X2][dV][NMeT](Me)S; disulfide 1-8; ester 5-C)
- IC50 ([1]; panel of tumor cell lines HCT116, A549, SK-MEL-5, A498 cells, read-out: IC50): 6 to 311 nM

Compound: COc1ccc(C[C@H]2NC(=O)/C=C/C[C@@H]([C@H](C)[C@H]3O[C@@H]3c3ccccc3)OC(=O)[C@H](CC(C)C)OC(=O)C(C)(C)CNC2=O)cc1Cl [Cryptophycin analogs (including 52, 55 and others)]
- IC50 ([1]; broad activity (lung, breast, colon, leukemia), read-out: IC50): 0.002 to 0.04 nM
- activity against multi-drug/drug resistant cell lines (in words) [2]: pM; active against

Compound: CO[C@@H](/C(C)=C/C=C/C(C)=C/c1coc(C)n1)[C@@H](C)[C@@H]1C[C@H](O)[C@@]2(C)O[C@@H]2/C=C/[C@@H](C)[C@H]2C[C@H](CC(=O)O2)C[C@H]2O[C@H]2C(=O)O1 [Rhizoxin]
- Toxicity (in words): Rapid Drug
